According to US11760751B2, “Benzo 2-azaspiro[4.4]nonane compound and use thereof” (HELIOEAST PHARMACEUTICAL CO., LTD., priority 2020, dated 2023):
Counter-ions that a name gives are not always drawn. Like-named read-outs stand apart in the source and are kept apart here.

Assays:
[1] = molecular target: T1, S1PR1 (Homo sapiens, UniProt P21453); assay: In vitro S1PR1 agonistic activity, U2OS-EDG1 cells, LiveBLAzer-FRET B/G (CCF4-AM); type: cell-based; conditions: for EC50: 20 hours incubation; for Emax: % Effect
T1 construct: expressed in transfected cells
Procedure: Test Embodiment 2: In Vitro Evaluation of the Agonistic Activity of the Compounds of the Present Disclosure on S1PR1
(§1) Experimental objective: to detect the agonistic activity of compounds on S1PR1
I. Cell Treatment • 1. The cells U2OS-EDG1 (batch number: Invitrogen-K1520) were taken out from a liquid nitrogen tank and quickly thawed in a 37° C. water bath; • 2. the cell suspension was aspirated into a 15 mL centrifuge tube, resuspended in 5 mL of pre-warmed culture medium, and centrifuged at 1000 rpm for 5 min; • 3. the supernatant was discarded, 10 mL of culture medium was resuspended, transferred to a T75 culture flask, and cultured in a 37° C., 5% CO2 incubator.
II. Agonist Assay • 1. Compounds were diluted to working concentrations, and the compounds were 3-fold diluted by Echo 555 (manufacturer: Labcyte) to 10 concentrations, and then 200 nL of each concentration were transferred to cell plates, and centrifuged at 1000 rpm for 15 seconds; • 2. the culture medium in the culture flask was aspirated, and 4 mL of Dulbecco's Phosphate Buffered Saline (DPBS, supplier: Coring, catalog number: 21-031-CVR, batch number: 03318006) was added thereto to wash off the residual serum, and 2 mL of trypsin was added thereto, and incubated in a 37° C. incubator for 2 minutes to digest the cells, and then 10 mL of seed plate culture medium was added to resuspend the cells, and 0.6 mL of the cell suspension was taken out for counting; • 3. the cell density was adjusted with the seed plate culture medium to 1.88E+05 cells/mL, 40 μL was seeded per well (7500\well), and 40 μL of FreeStyle™ Expression culture medium was added around the cell plate, left to stand for 15 minutes at room temperature, and incubated at 37° C. with 5% CO2 for 20 hours.
III. Signal Detection • 1. LiveBLAzer™-FRET B/G Substrate (CCF4-AM) detection reagent was configured according to the instructions; • 2. 8 μL of 6×Substrate Mixture was added to each well of the cell plate, centrifuged at 1000 rpm for 15 seconds, attached with a membrane, incubated at 23° C. for 2 hours, and detected by Envision […].
IV. Data Analysis • 1. The original data was converted into % Effect by using the equation, and the value of EC50 could be obtained by curve fitting with four parameters [obtained in the “log(agonist) vs. response—Variable slope” mode in GraphPad Prism]; • 2. calculation formula: Ratio=(460 nm−blank)/(535 nm−blank) % Effect=(SampleRatio−Ave LCRatio)/(Ave HCRatio−Ave LCRatio)*100%

[2] = Pharmacokinetic evaluation in SD rats at different oral doses; type: in vivo, Sprague Dawley rats; conditions: male, Sprague-Dawley, rat, plasma, po; for AUC(0-t): read-out: Area under the drug-time curve AUC0-last PO; for half-life: read-out: Half-life T1/2 (PO) (converted); for Cmax: read-out: Peak concentration Cmax; for Tmax: read-out: Peak time Tmax
Procedure: Test Embodiment 5: Pharmacokinetic Evaluation of Compounds in Rats at Different Doses
Experimental objective: to test the pharmacokinetics of the compounds in SD rats at different doses
Sprague Dawley rats (male, 200-300 g, 7-9 weeks old, Shanghai SLAC)
A standard protocol was used to test the pharmacokinetic characteristics of the compounds in SD rats after oral administration. In the experiment, the candidate compound was prepared into a clear solution, and administrated to rats by single oral administration. The vehicle for compound 1 was DMSO: 10% hydroxypropyl β-cyclodextrin aqueous solution=5:95. The vehicle for compounds 1A and 1B was 0.5% carboxymethyl cellulose +0.2% Tween 80. Whole blood samples of compounds 1, 1A and 1B within 48 hours were collected, centrifuged at 3000 g for 15 minutes, and the supernatant was separated to obtain plasma samples. 4-fold volume of acetonitrile solution containing internal standard was added thereto to precipitate protein. The mixture was centrifuged, and the supernatant was taken, and an equal volume of water was added thereto. Then the mixture was centrifuged and the supernatant was taken for injection. The blood drug concentration was quantitatively analyzed by LC-MS/MS analysis method, and pharmacokinetic parameters, such as peak concentration, peak time, half-life, area under the drug-time curve, were calculated.

[3] = molecular target: T1, S1PR1; assay: In vitro S1PR1 agonistic activity, PathHunter cell line, chemiluminescent detection; type: cell-based; conditions: for EC50: 90-180 min at 37° C.; for Emax: % activity vs maximum control ligand
Procedure: Test Embodiment 1: In Vitro Evaluation of the Agonistic Activity of the Compounds of the Present Disclosure on S1PR1
as §1
I. Cell Treatment • 1. A PathHunter cell line was thawed according to standard procedures; • 2. the cells were inoculated in a 20 μL 384-well microplate and incubated at 37° C. for appropriate time.
II. Agonist • 1. For agonist determination, cells were incubated with samples to be tested to induce a reaction; • 2. a storage solution to be tested was 5-fold diluted into a buffer; • 3. 5 μL of the 5-fold dilution was added to the cells and incubated at 37° C. for 90-180 minutes. The vehicle concentration was 1%.
III. Signal Detection • 1. 12.5 μL or 15 μL of PathHunter detection reagent at a volume ratio of 50% was added at a time, and then incubated at room temperature for 1 hour to generate a detection signal; • 2. the microplate was read with a PerkinElmer Envision™ instrument for chemiluminescent signal detection.
IV. Data Analysis • 1. Activity analysis of the compound was carried out by using CBIS data analysis kit (ChemInnovation, CAA); • 2. calculation formula: % activity=100%×(average test sample RLU−average vehicle RLU)/(average maximum control ligand−average vehicle RLU)

[4] = Pharmacokinetic evaluation in SD rats (intravenous and oral); type: in vivo; conditions: male, Sprague-Dawley, plasma, SD rat; for Cmax: read-out: Peak concentration Cmax; for bioavailability: read-out: Bioavailability F; for clearance: read-out: Clearance rate CL; for Vd: read-out: Tissue distribution Vdss; for AUC(0-t): read-out: Area under the drug-time curve AUC0-last PO; for half-life: read-out: Half-life T1/2 (PO) (converted)
Procedure: Test Embodiment 3: Pharmacokinetic Evaluation of Compound in Rats
Experimental objective: to test the pharmacokinetics of the compound in SD rats
Sprague Dawley rat (male, 200-300 g, 7-9 weeks old, Shanghai SLAC)
(§2) A standard protocol was used to test the pharmacokinetic characteristics of rodents after intravenous injection and oral administration of the compound. In the experiment, the candidate compound was prepared into a clear solution, and administrated to rats by single intravenous injection and oral administration. The vehicle for intravenous injection was a 5:95 DMSO and 10% hydroxypropyl cyclodextrin aqueous solution, and the vehicle for oral administration was a 0.5% w/v methylcellulose and 0.2% w/v tween 80 aqueous solution. Whole blood samples within 24 hours were collected, centrifuged at 3000 g for 15 minutes, and the supernatant was separated to obtain plasma samples. 4-fold volume of acetonitrile solution containing internal standard was added thereto to precipitate protein. The mixture was centrifuged, and the supernatant was taken, and an equal volume of water was added thereto. Then the mixture was centrifuged and the supernatant was taken for injection. The blood drug concentration was quantitatively analyzed by LC-MS/MS analysis method, and pharmacokinetic parameters, such as peak concentration, clearance rate, half-life, area under the drug-time curve and bioavailability, were calculated.

[5] = Pharmacokinetic evaluation in CD-1 mice (intravenous and oral); type: in vivo; conditions: male, mouse, plasma; for Cmax / bioavailability: intravenous 0.5 mg/kg; for Cmax: oral 2.0 mg/kg (route of Cmax not stated), read-out: Peak concentration Cmax; for bioavailability: oral 2.0 mg/kg, read-out: Bioavailability F; for clearance / Vd: intravenous injection 0.5 mg/kg (oral 2.0 mg/kg); for clearance: read-out: Clearance rate CL; for Vd: read-out: Tissue distribution Vdss; for AUC(0-t) / half-life: oral administration 2.0 mg/kg; for AUC(0-t): read-out: Area under the drug-time curve AUC0-last PO; for half-life: read-out: Half-life T1/2 (PO) (converted)
Procedure: Test Embodiment 4: Pharmacokinetic Evaluation of Compound in Mice
Experimental objective: to test the pharmacokinetics of the compound in CD-1 mice
CD-1 mice (male, 20-40 g, 6-10 weeks old, Shanghai BK)
as §2, with “The standard” for “A standard”, “clear solution or a suspension,” for “clear solution,”, “to two mice” for “to rats”, “hydroxypropyl β-cyclodextrin” for “hydroxypropyl cyclodextrin”, “at 3200” for “at 3000”, “for 10” for “for 15”

[6] = 5 mg/kg, single oral administration 5 mg/kg
[7] = intravenous injection 0.8 mg/kg (oral 2.4 mg/kg)
[8] = 30 mg/kg, single oral administration 30 mg/kg
[9] = intravenous injection 1.0 mg/kg (oral 3.0 mg/kg)

T1 sequence (P21453 whole entry): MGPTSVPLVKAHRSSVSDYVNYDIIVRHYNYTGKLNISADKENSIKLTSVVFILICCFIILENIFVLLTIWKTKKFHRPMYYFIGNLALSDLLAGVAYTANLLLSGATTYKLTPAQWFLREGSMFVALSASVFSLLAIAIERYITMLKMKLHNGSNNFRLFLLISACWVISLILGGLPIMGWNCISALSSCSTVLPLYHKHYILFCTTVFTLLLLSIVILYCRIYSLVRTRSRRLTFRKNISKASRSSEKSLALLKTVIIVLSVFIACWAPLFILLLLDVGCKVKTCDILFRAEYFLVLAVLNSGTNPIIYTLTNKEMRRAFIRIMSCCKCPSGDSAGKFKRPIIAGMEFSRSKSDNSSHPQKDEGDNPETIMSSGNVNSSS

## N#Cc1cc(-c2nc(-c3cccc4c3CCC43CCN(CC4(C(=O)O)CC4)C3)no2)ccc1OC1CCCC1 (centres unmarked) [Hydrochloride of compound 31]
[1]
  EC50: 0.456 nM
[1]; read-out: Emax
  Emax: 101%

## CC(C)Oc1ccc(-c2nc(-c3cccc4c3CCC43CCN(CC4(C(=O)O)CC4)C3)no2)cc1C(F)F (centres unmarked) [Hydrochloride of compound 29]
[1]
  EC50: 0.0211 nM
[1]; read-out: Emax
  Emax: 91.5%

## CC(C)Oc1ccc(-c2nc(-c3cccc4c3CCC43CCN(CC4(C(=O)O)CC4)C3)no2)cc1C#N (single isomer, unassigned) [Compound 22B]
[1]
  EC50: 0.32 nM
  Emax: nM, 74.0%
[2]; [6]
  AUC(0-t): 33 µM·h
  half-life: 6.7 h
  Cmax: 2940 nM
  Tmax: 3 h

## CC(C)Oc1ccc(-c2nc(-c3cccc4c3CCC43CCN(CC4(C(=O)O)CC4)C3)no2)cc1C#N (centres unmarked) [Hydrochloride of compound 22]
[3]
  EC50: 0.0754 nM
  Emax: 118%
[4]; intravenous 0.8 mg/kg, oral 2.4 mg/kg (route of Cmax not stated)
  Cmax: 1770 ng/mL
[4]; intravenous 0.8 mg/kg, oral 2.4 mg/kg
  bioavailability: 69.5%
[4]; [7]
  clearance: 3.44 mL/min/kg
  Vd: 1.6 L/kg
[4]; oral administration 2.4 mg/kg
  AUC(0-t): 16.3 µM·h
  half-life: 4.67 h
[5]
  Cmax: 869 ng/mL
  bioavailability: 62.5%
  clearance: 5.2 mL/min/kg
  Vd: 1.82 L/kg
  AUC(0-t): 7.88 µM·h
  half-life: 3.66 h
[2]; [6]
  AUC(0-t): 32.3 µM·h
  Cmax: 2400 nM
  Tmax: 5 h
[2]; [8]
  AUC(0-t): 256 µM·h
  half-life: 8.24 h
  Cmax: 15300 nM
  Tmax: 2 h

## CC(C)Nc1ncc(-c2nc(-c3cccc4c3CCC43CCN(CC4(C(=O)O)CC4)C3)no2)cc1C#N (centres unmarked) [Hydrochloride of compound 33]
[1]
  EC50: 10.2 nM
[1]; read-out: Emax
  Emax: 99.9%

## CC(C)Oc1ccc(-c2nc(-c3cccc4c3CCC43CCN(C(=O)CO)C3)no2)cc1C#N (centres unmarked) [Compound 1]
[3]
  EC50: 0.137 nM
  Emax: 122%
[4]; intravenous 1.0 mg/kg, oral 3.0 mg/kg (route of Cmax not stated)
  Cmax: 1140 ng/mL
[4]; intravenous 1.0 mg/kg, oral 3.0 mg/kg
  bioavailability: 83.1%
[4]; [9]
  clearance: 5.97 mL/min/kg
  Vd: 2.66 L/kg
[4]; oral administration 3.0 mg/kg
  AUC(0-t): 11.5 µM·h
  half-life: 4.91 h
[5]
  Cmax: 615 ng/mL
  bioavailability: 70.1%
  clearance: 18.2 mL/min/kg
  Vd: 2.17 L/kg
  AUC(0-t): 2.74 µM·h
  half-life: 3.61 h

## CC(C)Oc1ncc(-c2nc(-c3cccc4c3CCC43CCN(CC4(C(=O)O)CC4)C3)no2)cc1C#N (centres unmarked) [Hydrochloride of compound 32]
[1]
  EC50: 1.45 nM
[1]; read-out: Emax
  Emax: 95.9%

## CC(C)Oc1ccc(-c2nc(-c3cccc4c3CCC43CCN(CC4(C(=O)O)CC4)C3)no2)cc1Br (centres unmarked) [Hydrochloride of compound 30]
[1]
  EC50: 0.132 nM
[1]; read-out: Emax
  Emax: 103%

## N#Cc1cc(-c2nc(-c3cccc4c3CCC43CCN(CC4(C(=O)O)CC4)C3)no2)ccc1OC(F)F (centres unmarked) [Hydrochloride of compound 34]
[1]
  EC50: 6.07 nM
[1]; read-out: Emax
  Emax: 94.9%
